The test system of assay [1] is N. gonorrhoeae strain FA1090 (standard MtrCDE expression). Kind of assay: MIC, broth microdilution (CLSI), antibiotic alone, peptide alone or peptide cotreatment. Format: cell-based. The note with it: Neisseria gonorrhoeae. The protocol:
(§1) Six peptides were tested against N. gonorrhoeae strains with various antimicrobial resistance phenotypes and with either standard MtrCDE expression (strain FA1090) or MtrCDE overexpression (strains WHO K, WHO P, and WHO X [15, 16]) (Table 2). […] Subsequent experiments were conducted with subinhibitory peptide concentrations (20 μg/ml for FA1090; 50 μg/ml for WHO K, WHO P, and WHO X).
(§2) Experiments were performed using a microdilution method in triplicate wells.
(§3) High-level resistance, resistance, intermediate resistance, and susceptibility phenotypes were determined per previously determined MIC values ([15]) using the interpretive criteria published by the Swedish Reference Group on Antibiotics (SGRA) ([25]). For cotreatment assays (peptide plus antibiotic), the antibiotic dilutions were made up in GC broth that contained the peptide at the appropriate concentration. The experiments were performed with peptide-only and antibiotic-only controls. Each well was inoculated with 10 μl of the appropriate N. gonorrhoeae strain at an optical density (absorbance at 600 nm) of 0.1 (∼1 × 10^6 CFU/ml). All experiments were performed with triplicate samples on at least three occasions.
(In broth dilution the organism is exposed to a series of concentrations in liquid medium.)

Assay [2] has as its system N. gonorrhoeae strain WHO K (MtrCDE overexpression). Kind of assay: microbe, parasite or virus in culture. The format is cell-based, Neisseria gonorrhoeae. The note with it: for MIC: Neisseria gonorrhoeae, 20 h. The protocol:
as §1, §2
[…] For cotreatment assays (peptide plus antibiotic), the antibiotic dilutions were made up in GC broth that contained the peptide at the appropriate concentration. The experiments were performed with peptide-only and antibiotic-only controls. Each well was inoculated with 10 μl of the appropriate N. gonorrhoeae strain at an optical density (absorbance at 600 nm) of 0.1 (∼1 × 10^6 CFU/ml). All experiments were performed with triplicate samples on at least three occasions.

For assay [3], the system named is N. gonorrhoeae strain WHO P (MtrCDE overexpression). The assay can be described thus: microbe, parasite or virus in culture. The format is cell-based, Neisseria gonorrhoeae. To be noted: for MIC: Neisseria gonorrhoeae, 20 h; for Reduction of azithromycin MIC compared with that for MtrCDE knockout versus wild-type strains: 50 μg/ml peptide, knockout comparison from ref 6; for Antimicrobial resistance phenotype, AZM, in the presence of peptide: cotreatment with 50 μg/ml peptide, EUCAST breakpoints. The protocol: as §1, §2, §3

In assay [4] the test system is N. gonorrhoeae strain WHO X (MtrCDE overexpression). The assay can be described thus: microbe, parasite or virus in culture. Format: cell-based, Neisseria gonorrhoeae. To be noted: for MIC: Neisseria gonorrhoeae, 20 h. The protocol: as §1, §2, §3
For assay [5], the system named is N. gonorrhoeae strains FA1090, WHO K, WHO P, WHO X. Kind of assay: Antibiotic MIC with peptide cotreatment, summarised over the strains tested. Format: cell-based, Neisseria gonorrhoeae. To be noted: for Reduction of the MICs of the four antibiotics tested on cotreatment: for at least one N. gonorrhoeae strain. As to the method: as §1, §2, §3
The test system of assay [6] is N. gonorrhoeae strain WHO X ΔmtrE. The assay can be described thus: Antibiotic MIC with or without P-MtrE1, mtrE knockout strain. Format: cell-based, Neisseria gonorrhoeae. As to the method:
(§4) N. gonorrhoeae strains used in this study include FA1090 (standard MtrCDE expression) ([22]), WHO K (MtrCDE overexpression) ([15]), WHO P (MtrCDE overexpression) ([15]), and WHO X (MtrCDE overexpression) ([16]). Wild-type strains were grown on GC agar or in GC broth (Oxoid) supplemented with IsoVitaleX (Bacto) at 37°C in 5% CO2. mtrE knockout strains of N. gonorrhoeae WHO X and WHO P (ΔmtrE) were generated by transforming bacteria with 1 μg of a linear DNA fragment (IDT) containing aminoglycoside 3′-phosphotransferase gene (NCBI accession no. VTT49712.1) flanked by 500-bp terminal fragments of the N. gonorrhoeae FA1090 mtrE gene (GenBank accession no. AE004969.1, positions 1 to 500 and 903 to 1403), as well as the gonococcal DNA uptake sequence ([…]) at the 5′ end ([23]). E. coli strain DH5α, used for cloning, was grown using Luria-Bertani agar or broth (Oxoid) at 37°C. The media were supplemented with 100 μg/ml ampicillin or 50 μg/ml kanamycin, as required.
as §2, §3

For assay [7], the system named is N. gonorrhoeae strain WHO P ΔmtrE. The description is as above. Format: cell-based, Neisseria gonorrhoeae. The protocol:
as §4, §2, §3

Where [8] appears, read: read-out: MIC of CRO (ceftriaxone).
Setting [9] is: WHO K, antibiotic alone, EUCAST breakpoints.
[10] abbreviates: read-out: MIC of ERY (erythromycin).
The mark [11] stands for this setting: read-out: MIC of AZM (azithromycin).
Setting [12] is: gentamicin is not subject to efflux by MtrCDE.
Where [13] appears, read: presence or absence of subinhibitory P-MtrE1 concentrations (0 or 6.5 μg/ml, Fig. 2).

Like-named read-outs stand apart in the source and are kept apart here. Where only a bound is given, the exact number is not on record here.

As to `CO/N=C(\C(=O)N[C@@H]1C(=O)N2C(C(=O)O)=C(CSc3nc(=O)c(=O)[nH]n3C)CS[C@H]12)c1csc(N)n1` [CRO, ceftriaxone], the MIC in assay [1] (read-out: MIC of CRO (ceftriaxone), antibiotic alone, microdilution per CLSI, GC broth, 20 h, triplicate wells) was less than 0.0078 µg/mL; in assay [2] (setting [8]), 0.031 µg/mL; in assay [3] (setting [8]) it was 0.004 µg/mL; in assay [4] (setting [8]), 2 µg/mL. Moreover, the “Antimicrobial resistance phenotype, CRO” value in assay [2] (setting [9]) is on record as “S (S ≤ 0.125)”.

As for “(KFF)3KGSGVFLVPLFY [P-MtrD1, self-derived peptide, 8 amino acids of MtrD fused to (KFF)3K cell-permeating peptide and GSG linker]”, the “Reduction of the MICs of the four antibiotics tested on cotreatment” value (“Reduction of the MICs … on cotreatment” for short) in assay [5] was “at least 2 fold”.

“(KFF)3KGSGDAAHLSLIATVAKAYFNERY [P-MtrE2, self-derived peptide, 20 amino acids of MtrE fused to (KFF)3K cell-permeating peptide and GSG linker]”: the “Reduction of the MICs … on cotreatment” value in assay [5] was “at least 2 fold”.

On to `CC[C@H]1OC(=O)[C@H](C)[C@@H](O[C@H]2C[C@@](C)(OC)[C@@H](O)[C@H](C)O2)[C@H](C)[C@@H](O[C@@H]2O[C@H](C)C[C@H](N(C)C)[C@H]2O)[C@](C)(O)C[C@@H](C)C(=O)[C@H](C)[C@@H](O)[C@]1(C)O` [ERY, erythromycin, reference compound], for which the MIC was 0.2 µg/mL in assay [1] (antibiotic alone, microdilution per CLSI, GC broth, 20 h, triplicate wells, read-out: MIC of ERY (erythromycin)); 16 µg/mL in assay [3] (setting [10]); 2 µg/mL in assay [4] (setting [10]).

With `CC[C@H]1OC(=O)[C@H](C)[C@@H](O[C@H]2C[C@@](C)(OC)[C@@H](O)[C@H](C)O2)[C@H](C)[C@@H](O[C@@H]2O[C@H](C)C[C@H](N(C)C)[C@H]2O)[C@](C)(O)C[C@@H](C)CN(C)[C@H](C)[C@@H](O)[C@]1(C)O` [AZM, azithromycin], the MIC in assay [1] (read-out: MIC of AZM (azithromycin), antibiotic alone, microdilution per CLSI, GC broth, 20 h, triplicate wells) was 0.063 µg/mL; in assay [2] (setting [11]), 0.25 µg/mL; in assay [3] (setting [11]), 4 µg/mL; in assay [4] (setting [11]) it was 0.5 µg/mL. For the same molecule, the “Antimicrobial resistance phenotype, AZM” value in assay [2] (setting [9]) was “S (S ≤ 0.25)”.

“(KFF)3KGSGVMKLRRQI [P-MtrC1, self-derived peptide, 8 amino acids of MtrC fused to (KFF)3K cell-permeating peptide and GSG linker]”: the “Reduction of the MICs … on cotreatment” value in assay [5] is recorded as “at least 2 fold”. In assay [3] (WHO P), the “Reduction of azithromycin MIC compared with that for MtrCDE knockout versus wild-type strains” value is recorded as “same magnitude” and the “Antimicrobial resistance phenotype, AZM, in the presence of peptide” value was “I”.

For “(KFF)3KGSG HLSLIATV [P-MtrE1, self-derived peptide, 8 amino acids of MtrE fused to (KFF)3K cell-permeating peptide and GSG linker]”, the “Reduction of the MICs … on cotreatment” value in assay [5] is recorded as “at least 2 fold”. The “Impact of peptide on susceptibility to gentamicin” value in assay [6] (setting [12]) is “no impact”; in assay [7] (setting [12]) it was “no impact”; in assay [3] (WHO P wild-type, gentamicin is not subject to efflux by MtrCDE), “no impact”; in assay [4] (WHO X wild-type, gentamicin is not subject to efflux by MtrCDE), “no impact”. In addition, the “Change in antibiotic susceptibility to ciprofloxacin or ceftriaxone with peptide” value in assay [6] (setting [13]) was “no change”. In assay [7] (setting [13]), the “Change in antibiotic susceptibility to erythromycin or azithromycin with peptide” value is reported as “no change”. In addition, in assay [3] (WHO P), the “Reduction of azithromycin MIC compared with that for MtrCDE knockout versus wild-type strains” value is given as “same magnitude”. In assay [3] (WHO P, concentrations as low as), the “Peptide concentration able to reduce the MICs of erythromycin and azithromycin” value is no more than 6.25 µg/mL. Further, the “Antimicrobial resistance phenotype, AZM, in the presence of peptide” value in assay [3] (WHO P) is listed as “S (S ≤ 0.25)”. Besides, the “Reduction of ciprofloxacin and ceftriaxone MICs compared with that between MtrCDE knockout and wild-type strains” value in assay [4] (WHO X, 50 μg/ml peptide, knockout comparison from ref 6) is “same magnitude”. Besides, the “Peptide concentration able to reduce the MICs of ciprofloxacin and ceftriaxone” value in assay [4] (WHO X, concentrations as low as) is no more than 6.25 µg/mL.

Consider HLSLIATV [P-MtrE1a], for which the “Effect of peptide on susceptibility to the antibiotics tested” value in assay [5] (control peptides, any strain against which P-MtrE1 had an effect) is listed as “not able to increase susceptibility to any antibiotic”.

(Values after PMC8765275, “Self-Inhibitory Peptides Targeting the Neisseria gonorrhoeae MtrCDE Efflux Pump Increase Antibiotic Susceptibility” (Antimicrobial Agents and Chemotherapy, 2022).)
